Test results taken from ChEMBL document CHEMBL5331073, “Discovery of novel 7,7-dimethyl-6,7-dihydro-5H-pyrrolo[3,4-d]pyrimidines as ATR inhibitors based on structure-based drug design” (Eur J Med Chem, 2023).
Converted amounts (≈) assume the structure as drawn. The source made the active and inactive calls. The calls are words filed in the database; no cut-off is given here.

Legend:
[1] = target: Serine/threonine-protein kinase ATR (Homo sapiens, UniProt Q13535); assay: Inhibition of ATR (unknown origin) using peptide as substrate preincubated for 10 mins followed by substrate addition by microplate reader analysis
Serine/threonine-protein kinase ATR, sequence (Q13535 whole entry): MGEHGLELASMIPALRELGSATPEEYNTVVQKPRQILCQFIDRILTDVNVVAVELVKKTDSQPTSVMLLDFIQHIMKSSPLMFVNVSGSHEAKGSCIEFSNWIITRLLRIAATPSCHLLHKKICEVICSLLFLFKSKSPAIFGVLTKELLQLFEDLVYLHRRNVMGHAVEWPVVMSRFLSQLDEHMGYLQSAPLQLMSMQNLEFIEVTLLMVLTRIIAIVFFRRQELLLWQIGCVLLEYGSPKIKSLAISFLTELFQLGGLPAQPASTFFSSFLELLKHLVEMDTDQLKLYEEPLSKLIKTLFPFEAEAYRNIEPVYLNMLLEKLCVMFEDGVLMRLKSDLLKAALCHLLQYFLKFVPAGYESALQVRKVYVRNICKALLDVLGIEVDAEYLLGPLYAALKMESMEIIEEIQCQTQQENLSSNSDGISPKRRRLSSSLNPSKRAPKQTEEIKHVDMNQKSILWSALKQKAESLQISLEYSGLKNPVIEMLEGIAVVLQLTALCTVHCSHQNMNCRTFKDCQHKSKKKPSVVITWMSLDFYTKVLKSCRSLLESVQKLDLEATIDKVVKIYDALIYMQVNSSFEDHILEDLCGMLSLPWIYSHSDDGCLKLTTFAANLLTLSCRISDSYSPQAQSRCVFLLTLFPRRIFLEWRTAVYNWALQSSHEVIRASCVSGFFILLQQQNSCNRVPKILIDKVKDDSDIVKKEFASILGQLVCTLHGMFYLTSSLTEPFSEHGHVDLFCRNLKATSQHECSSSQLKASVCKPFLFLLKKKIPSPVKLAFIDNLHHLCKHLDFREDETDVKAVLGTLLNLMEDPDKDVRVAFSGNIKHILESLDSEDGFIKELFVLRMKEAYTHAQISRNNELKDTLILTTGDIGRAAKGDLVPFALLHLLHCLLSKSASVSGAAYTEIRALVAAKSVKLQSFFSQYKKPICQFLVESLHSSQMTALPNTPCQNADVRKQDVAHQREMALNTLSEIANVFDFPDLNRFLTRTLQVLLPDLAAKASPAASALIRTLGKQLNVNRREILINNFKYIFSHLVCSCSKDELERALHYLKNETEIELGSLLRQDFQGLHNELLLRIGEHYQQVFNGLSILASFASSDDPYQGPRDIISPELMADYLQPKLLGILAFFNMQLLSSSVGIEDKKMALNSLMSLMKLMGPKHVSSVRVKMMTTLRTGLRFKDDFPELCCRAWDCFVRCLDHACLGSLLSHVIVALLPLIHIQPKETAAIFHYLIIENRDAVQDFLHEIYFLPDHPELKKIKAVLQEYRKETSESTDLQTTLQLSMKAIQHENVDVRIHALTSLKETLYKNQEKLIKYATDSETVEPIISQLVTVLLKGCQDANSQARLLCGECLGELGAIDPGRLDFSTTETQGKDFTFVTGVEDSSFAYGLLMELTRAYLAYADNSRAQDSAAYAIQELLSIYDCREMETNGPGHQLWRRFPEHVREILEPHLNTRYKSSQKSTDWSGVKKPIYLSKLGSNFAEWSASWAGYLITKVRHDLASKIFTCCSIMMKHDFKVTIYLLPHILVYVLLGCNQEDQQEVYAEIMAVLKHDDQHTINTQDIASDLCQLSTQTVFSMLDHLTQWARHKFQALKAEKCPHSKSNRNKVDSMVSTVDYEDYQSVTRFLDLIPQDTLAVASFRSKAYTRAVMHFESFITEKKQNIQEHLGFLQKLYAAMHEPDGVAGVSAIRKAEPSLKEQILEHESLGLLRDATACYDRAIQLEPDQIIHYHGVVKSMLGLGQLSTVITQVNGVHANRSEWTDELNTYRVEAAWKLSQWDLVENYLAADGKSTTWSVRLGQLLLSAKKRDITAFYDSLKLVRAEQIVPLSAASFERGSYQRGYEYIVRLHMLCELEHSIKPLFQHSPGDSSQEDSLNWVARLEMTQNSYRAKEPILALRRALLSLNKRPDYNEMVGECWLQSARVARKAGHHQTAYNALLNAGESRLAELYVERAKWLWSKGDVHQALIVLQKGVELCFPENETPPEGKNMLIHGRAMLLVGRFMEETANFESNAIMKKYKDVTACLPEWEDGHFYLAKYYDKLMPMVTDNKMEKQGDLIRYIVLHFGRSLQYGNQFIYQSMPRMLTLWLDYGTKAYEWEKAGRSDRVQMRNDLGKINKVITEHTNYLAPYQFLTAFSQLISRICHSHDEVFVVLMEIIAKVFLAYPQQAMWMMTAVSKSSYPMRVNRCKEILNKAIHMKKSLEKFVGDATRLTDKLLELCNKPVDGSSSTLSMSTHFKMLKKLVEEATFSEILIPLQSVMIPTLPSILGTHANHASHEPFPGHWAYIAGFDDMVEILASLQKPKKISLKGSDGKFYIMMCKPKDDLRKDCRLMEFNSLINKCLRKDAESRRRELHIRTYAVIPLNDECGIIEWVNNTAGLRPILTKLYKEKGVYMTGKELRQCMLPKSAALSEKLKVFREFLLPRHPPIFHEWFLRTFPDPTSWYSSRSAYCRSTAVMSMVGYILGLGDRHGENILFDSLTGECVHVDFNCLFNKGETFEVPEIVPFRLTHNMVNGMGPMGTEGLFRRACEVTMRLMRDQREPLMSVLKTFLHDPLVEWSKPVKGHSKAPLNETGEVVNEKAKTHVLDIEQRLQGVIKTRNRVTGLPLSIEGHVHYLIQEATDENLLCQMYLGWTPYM

[2] = MRT(t) in Sprague-Dawley rat at 1 mg/kg, iv and measured upto 24 hrs by LC-MS analysis; format: ADME, organism-based; settings: in vivo
[3] = AUC(0 to infinity) in Sprague-Dawley rat at 1 mg/kg, iv and measured upto 24 hrs by LC-MS analysis; format: ADME, organism-based; parameters: time < 24 hrs, dose 1 mg/kg, route iv; settings: in vivo
[4] = AUCt in Sprague-Dawley rat at 1 mg/kg, iv and measured upto 24 hrs by LC-MS analysis; format: ADME, organism-based; parameters: dose 1 mg/kg, time < 24 hrs, route iv; settings: in vivo
[5] = AUCt in Sprague-Dawley rat at 5 mg/kg, po and measured upto 24 hrs by LC-MS analysis; format: ADME, organism-based; parameters: time < 24 hrs, dose 5 mg/kg, route po; settings: in vivo
[6] = MRT (0 to infinity) in Sprague-Dawley rat at 5 mg/kg, po and measured upto 24 hrs by LC-MS analysis; format: ADME, organism-based; settings: in vivo
[7] = Oral bioavailability in Sprague-Dawley rat at 5 mg/kg and measured upto 24 hrs by LC-MS analysis; format: ADME, organism-based; settings: in vivo
Cytochrome P450 2C9 = Cytochrome P450 2C9 (Homo sapiens, UniProt P11712); assay: Inhibition of CYP2C9 in human liver microsomes using […] as substrate preincubated for 5 mins followed by NADPH addition and measured after 120 mins by LC-MS/MS analysis; format: ADME, Microsome
Cytochrome P450 2C9, sequence (P11712 whole entry): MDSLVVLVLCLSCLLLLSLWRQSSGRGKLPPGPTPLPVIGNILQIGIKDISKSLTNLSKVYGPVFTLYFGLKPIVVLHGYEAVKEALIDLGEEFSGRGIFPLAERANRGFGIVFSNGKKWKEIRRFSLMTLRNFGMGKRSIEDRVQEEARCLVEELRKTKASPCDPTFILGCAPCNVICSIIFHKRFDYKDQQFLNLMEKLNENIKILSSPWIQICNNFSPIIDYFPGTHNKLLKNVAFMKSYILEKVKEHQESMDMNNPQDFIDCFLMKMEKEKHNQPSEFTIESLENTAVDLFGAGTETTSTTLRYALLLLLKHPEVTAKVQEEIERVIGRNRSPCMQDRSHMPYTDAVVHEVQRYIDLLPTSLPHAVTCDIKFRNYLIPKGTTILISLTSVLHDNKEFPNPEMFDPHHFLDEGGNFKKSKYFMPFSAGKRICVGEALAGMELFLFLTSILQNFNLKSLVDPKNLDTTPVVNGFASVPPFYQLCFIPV

Cytochrome P450 3A4 [8] = target: T1, Cytochrome P450 3A4 (Homo sapiens, UniProt P08684); assay: Inhibition of CYP3A4 in human liver microsomes using midazolam as substrate preincubated for 5 mins followed by NADPH addition and measured after 120 mins by LC-MS/MS analysis; format: ADME, Microsome
T1 sequence (P08684 whole entry): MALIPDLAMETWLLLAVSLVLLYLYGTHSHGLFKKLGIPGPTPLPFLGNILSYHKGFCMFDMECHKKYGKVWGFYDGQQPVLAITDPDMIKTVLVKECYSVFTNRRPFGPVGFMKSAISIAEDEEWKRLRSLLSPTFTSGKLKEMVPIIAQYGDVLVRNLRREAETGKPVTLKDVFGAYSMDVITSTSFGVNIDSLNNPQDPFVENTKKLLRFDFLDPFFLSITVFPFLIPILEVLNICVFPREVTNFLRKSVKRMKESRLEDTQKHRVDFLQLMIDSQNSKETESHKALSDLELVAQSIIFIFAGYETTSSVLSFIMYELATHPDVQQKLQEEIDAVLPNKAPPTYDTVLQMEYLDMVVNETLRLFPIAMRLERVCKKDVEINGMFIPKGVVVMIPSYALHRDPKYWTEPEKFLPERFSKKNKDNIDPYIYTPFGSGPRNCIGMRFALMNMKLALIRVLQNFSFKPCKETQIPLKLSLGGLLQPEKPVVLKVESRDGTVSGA

Cytochrome P450 3A4 [9] = target: T1, Cytochrome P450 3A4; assay: Inhibition of CYP3A4 in human liver microsomes using […] as substrate preincubated for 5 mins followed by NADPH addition and measured after 120 mins by LC-MS/MS analysis; format: ADME, Microsome
[10] = Protein binding in human plasma at 1 uM incubated for 6 hrs by dialysis based LC-MS/MS analysis; format: ADME, cell-free; settings: read-out: PPB (converted)
[11] = Protein binding in Beagle dog plasma at 1 uM incubated for 6 hrs by dialysis based LC-MS/MS analysis; format: ADME, cell-free, Canis lupus familiaris; settings: read-out: PPB (converted)
[12] = Protein binding in mouse plasma at 1 uM incubated for 6 hrs by dialysis based LC-MS/MS analysis; format: ADME, cell-free; settings: read-out: PPB (converted)
HCT-116 = assay: Antiproliferative activity against ATM-proficient human HCT-116 cells assessed as reduction in cell viability incubated for 3 days in presence of AZD-1390 by MTT assay; format: functional, cell-based; settings: HCT-116, 72 h
A549 [13] = assay: Antiproliferative activity against ATM-proficient human A549 cells assessed as reduction in cell viability incubated for 3 days in presence of AZD-1390 by MTT assay; format: functional, cell-based; settings: A549, 72 h
A549 [14] = assay: Synergistic antiproliferative activity against ATM-proficient human A549 cells assessed as reduction in cell viability incubated for 3 days in presence of cisplatin by MTT assay; format: functional, cell-based; settings: A549, 72 h
A549 [15] = assay: Synergistic antiproliferative activity against ATM-proficient human A549 cells assessed as reduction in cell viability incubated for 3 days in presence of oxaliplatin by MTT assay; format: functional, cell-based; settings: A549, 72 h
MCF7 = assay: Antiproliferative activity against human MCF7 cells assessed as reduction in cell viability incubated for 3 days by MTT assay; format: functional, cell-based; settings: MCF7, 72 h
MDA-MB-231 = assay: Antiproliferative activity against human MDA-MB-231 cells assessed as reduction in cell viability incubated for 3 days by MTT assay; format: functional, cell-based; settings: MDA-MB-231, 72 h
[16] = Aqueous solubility of compound at pH 7.4 by HPLC-MS/MS analysis; format: physicochemical; settings: aqueous medium
[17] = Apparent permeability across basolateral to apical side in human Caco-2 cells by bidirectional permeability assay; format: ADME, cell-based
[18] = Efflux ratio of apparent permeability across basolateral to apical side over apical to basolateral side in human Caco2 cells; format: ADME, cell-based; settings: Caco-2
[19] = target: Serine-protein kinase ATM (Homo sapiens, UniProt Q13315); assay: Inhibition of ATM (unknown origin) using peptide as substrate preincubated for 10 mins followed by substrate addition by microplate reader analysis
in vitro [20] = settings: human, liver microsomes
in vitro [21] = settings: rat, liver microsomes
in vitro [22] = settings: human, liver microsomes; remark: listed apart in the source
in vitro [23] = settings: rat, liver microsomes; remark: listed apart in the source
LoVo [24] = assay: Antiproliferative activity against ATM-deficient human LoVo cells assessed as reduction in cell proliferation at 0.1 to 25 uM incubated for 3 days by MTT assay; format: functional, cell-based; settings: dose 0.1-25 µM, time 3.0 day
HT-29 = assay: Antiproliferative activity against ATM-proficient human HT-29 cells assessed as reduction in cell proliferation at 0.5 to 22 uM incubated for 3 days by MTT assay; format: functional, cell-based; settings: dose 0.5-22 µM, time 3.0 day
LoVo [25] = assay: Inhibition of colony formation of ATM-deficient human LoVo cells at 0.3 to 1 uM incubated for 2 weeks by crystal violet staining based assay; format: functional, cell-based; settings: dose 0.3-1 µM

| Structure (SMILES) | IC50 [1] | MRT last at 24 h [2] | AUC(0-inf) [3] | AUC(0-t) at 24 h [4] | AUC(0-t) at 24 h [5] | MRT inf [6] | bioavailability [7] | IC50 (Cytochrome P450 2C9) | IC50 (Cytochrome P450 3A4 [8]) | IC50 (Cytochrome P450 3A4 [9]) | fraction unbound at 6 h, 1 µM [10] | fraction unbound at 6 h, 1 µM [11] | fraction unbound at 6 h, 1 µM [12] | IC50 (HCT-116) | IC50 (A549 [13]) | IC50 (A549 [14]) | IC50 (A549 [15]) | IC50 (MCF7) | IC50 (MDA-MB-231) | solubility [16] | also measured |
| --- | --- | --- | --- | --- | --- | --- | --- | --- | --- | --- | --- | --- | --- | --- | --- | --- | --- | --- | --- | --- | --- |
| C[C@@H]1COCCN1c1nc(-c2cccc3[nH]ccc23)nc2c1CN(C(=O)c1ccc3c(c1)OCO3)C2(C)C | 0.005 µM | 1.99 h | 2810 ng·h/mL | 2740 ng·h/mL | 5700 ng·h/mL | 4.21 h | 41.6% | 10 µM | 1 µM | 1 µM | 0.001 | 0.005 | 0.005 | 0.084 µM | 0.127 µM | 0.439 µM | 0.337 µM | 0.73 µM | 2.57 µM | 0.34 µM (≈ 0.174 µg/mL) | Papp B→A [17]: 2.3 ×10⁻⁶ cm/s; efflux ratio [18]: 1.2; IC50 [19]: 0.516 µM; half-life at 1 h, 1 µM (in vitro [20]): 0.435 h; half-life at 1 h, 1 µM (in vitro [21]): 0.655 h; microsomal CLint at 1 h, 1 µM (in vitro [22]): 53.2 µL/min/mg; microsomal CLint at 1 h, 1 µM (in vitro [23]): 35.3 µL/min/mg |
| C[C@@H]1COCCN1c1nc(-c2cccc3[nH]ccc23)nc2c1CN(C(=O)c1cccc(S(C)(=O)=O)c1)C2(C)C | 0.003 µM | 1.36 h | 1170 ng·h/mL | 1160 ng·h/mL | 1620 ng·h/mL | 4.26 h | 30% | 10 µM | 1 µM | 10 µM | 0.003 | 0.022 | 0.024 | 0.001 µM | 0.013 µM | 0.28 µM | 0.114 µM | 0.873 µM | 1.07 µM | 15.4 µM (≈ 8.4 µg/mL) | Activity (LoVo [24]): Dose-Dependent Effect; Activity (HT-29): Dose-Dependent Effect; inhibition (LoVo [25]): Active; Papp B→A [17]: 16.7 ×10⁻⁶ cm/s; efflux ratio [18]: 2; IC50 [19]: 1 µM; half-life at 1 h, 1 µM (in vitro [20]): 0.0567 h; half-life at 1 h, 1 µM (in vitro [21]): 0.35 h; microsomal CLint at 1 h, 1 µM (in vitro [22]): 407 µL/min/mg; microsomal CLint at 1 h, 1 µM (in vitro [23]): 66.2 µL/min/mg |
